Source: patent publication US5935951A, “1-acyl-4-aliphatylaminopiperidine compounds” (Novartis Finance Corporation, priority 1994, dated 1999)
Structures can show the parent of a compound that is named as a salt.

Target: T1, 3H-substance P binding to the bovine retina (Bos taurus, UniProt F1MIX5)
T1 construct: from tissue; host or cells: bovine retina
Test: radioreceptor assay: binding of 3H-substance P to the bovine retina (according to H. Bittiger)
Conditions: in vitro, read-out: in vitro values: inhibition of the binding of 3H-substance P to the bovine retina

T1 sequence (F1MIX5 1-407): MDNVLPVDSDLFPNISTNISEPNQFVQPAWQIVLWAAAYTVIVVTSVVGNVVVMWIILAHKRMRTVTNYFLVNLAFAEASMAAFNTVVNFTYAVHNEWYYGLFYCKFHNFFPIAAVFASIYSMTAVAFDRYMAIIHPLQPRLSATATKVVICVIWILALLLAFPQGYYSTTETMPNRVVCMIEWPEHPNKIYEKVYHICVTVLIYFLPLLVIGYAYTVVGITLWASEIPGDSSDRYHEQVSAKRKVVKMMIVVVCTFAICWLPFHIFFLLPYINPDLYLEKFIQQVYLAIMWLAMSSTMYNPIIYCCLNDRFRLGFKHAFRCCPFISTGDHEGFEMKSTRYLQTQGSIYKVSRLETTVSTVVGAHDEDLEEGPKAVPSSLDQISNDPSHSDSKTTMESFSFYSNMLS

| IC50 [nM] | SMILES |
| --- | --- |
| 11 | CN(C)CCCOC(=O)N[C@H]1CCN(C(=O)c2cc(C(F)(F)F)cc(C(F)(F)F)c2)[C@H](Cc2ccccc2)C1 [16 (2nd compound), 3-dimethylaminopropyl (2R,4S)-N-[2-benzyl-1-(3,5-bistrifluoromethylbenzoyl)piperidin-4-yl]carbamate] |
| 7.6 | CCNC(=O)N[C@H]1CCN(C(=O)c2cc(C(F)(F)F)cc(C(F)(F)F)c2)[C@H](Cc2ccc(Cl)cc2)C1 [45 (c), (2R,4S)-1-[1-(3,5-bistrifluoromethylbenzoyl)-2-(4-chlorobenzyl)piperdin-4-yl]-3-ethylurea] |
| 10 | NC(=O)CN[C@H]1CCN(C(=O)c2cc(C(F)(F)F)cc(C(F)(F)F)c2)[C@H](Cc2ccccc2)C1 [Example 2, (2R,4S)-2-[2-Benzyl-1-(3,5-bistrifluoromethylbenzoyl)piperidin-4-ylamino]-acetamide hydrochloride] |
| 11 | CCCC(=O)N[C@H]1CCN(C(=O)c2cc(C(F)(F)F)cc(C(F)(F)F)c2)[C@H](Cc2ccc(Cl)cc2)C1 [Example 28, (2R,4S)-N-[1-(3,5-Bistrifluoromethylbenzoyl)-2-(4-chlorobenzyl)piperidin-4-yl]-butyramide] |
| 9 | O=C(NC1CCCCC1)N[C@H]1CCN(C(=O)c2cc(C(F)(F)F)cc(C(F)(F)F)c2)[C@H](Cc2ccccc2)C1 [Example 45 (f), (2R,4S)-1-[2-benzyl-1-(3,5-bistrifluoromethylbenzoyl)piperidin-4-yl]-3-cyclohexylurea] |
